# Assay results reported in US9187497B2, “Substituted pyrido[3,2-e]pyrrolo[1,2-a]pyrazines as inhibitors of poly(ADP-ribose)polymerase (PARP)” (Takeda Phamaceutical Company Limited, priority 2009, dated 2015).
# How the values were obtained:
# Jurkat cell line = assay: PARP cellular chemopotentiation assay (MTS cell viability with and without TMZ); assay type: cell-based; settings: ratio of EC50 for inhibition of cell viability without and with 100 μM TMZ; Jurkat cells, 96 hours of treatment
# How it was run: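 Jurkat cells, 10,000/well, pre-cultured 24 h, then treated 96 h with serial compound dilutions (0.5% DMSO) with or without 100 μM TMZ. Viability by MTS conversion (OD490), normalized to DMSO controls; EC50 from curve fits, PF50 = EC50 without TMZ / EC50 with TMZ.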
# [1] = molecular target: T1, catalytic domain of Human PARP (Homo sapiens, UniProt P09874); assay: Biacore surface plasmon resonance affinity assay (dissociation constant KD); assay type: binding; settings: pKD=-log(KD), KD in molar concentration; Biacore T100, 25° C.
# T1 construct: The catalytic domain of Human PARP was cloned and prepared; made in house
# T1 sequence (P09874 788-1014 limits assumed): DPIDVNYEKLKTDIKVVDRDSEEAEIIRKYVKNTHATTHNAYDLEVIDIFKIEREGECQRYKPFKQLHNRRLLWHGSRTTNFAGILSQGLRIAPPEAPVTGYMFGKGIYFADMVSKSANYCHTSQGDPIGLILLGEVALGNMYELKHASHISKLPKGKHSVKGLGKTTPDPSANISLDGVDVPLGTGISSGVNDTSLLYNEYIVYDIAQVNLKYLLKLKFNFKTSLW
# Protocol: Dissociation Constant (KD) from Surface Plasmon Resonance
# The catalytic domain of Human PARP was cloned and prepared as described in Kinoshita, T.; Nakanishi, I.; Warizaya, M.; Iwashita, A.; Kido, Y.; Hattori, K. and Fujii, T. 2006 FEBS Letters 556, 43-46. Purified enzyme was stored at −80° C. in 25 mM Tris(hydroxymethyl)aminomethane (Tris) pH 7.4, 150 mM NaCl, 2 mM dithiothreitol (DTT) at a concentration of 6 mg/ml.
# Biacore affinity assays for test compounds were conducted on a Biacore T100 (GE Healthcare) as follows. A Series S Sensor Chip CM5 (part number BR-1006-68, GE Healthcare) was activated for amide coupling with an Amine Coupling Kit (part number BR-1000-50, GE Healthcare) as described by the manufacturer. The mobile phase buffer consisted of Biacore buffer HBS-P (part number BR-1003-68, GE Healthcare) supplemented with 1% v/v dimethylsulfoxide (DMSO), 0.5 mM Tris(2-carboxyethyl)phosphine hydrochloride (TCEP), and 5 mM MgCl2. Enzyme samples (2 μl/6 mg/ml) stored at −80° C. were diluted to 0.080 mg/ml with 10 mM 4-morpholineethanesulfonic acid (MES) pH 6.5 and then mounted on the activated Biacore CM5 chip at a flow rate of 10 μl/min for 240 seconds. When successfully mounted, a signal of approximately 8,000 reflective units was observed. Test compounds were diluted 9 times 2-fold serially in mobile phase buffer (listed above) at 1% v/v DMSO final to generate a concentration gradient bracketing their anticipated KDs. Biacore mounted PARP was given a 1 minute exposure (association phase) to various concentrations of test compounds to observe a steady state equilibrium or an on rate. The exposure was followed with a dissociation phase of 5 minutes. The association and dissociation phases were at a flow rate of 50 μl/min and a temperature of 25° C.
# Parameters Rmax (response at saturation) and KD (binding constant) were calculated through a nonlinear least squares fitting of the equation to the data by use of the Biacore T100 analysis software.
# Parameter optimization was through a nonlinear least squares analysis of the association phase Response=Rmax*(1−exp(−(kon[cmpd]+koff)*t)) and dissociation phase Response=[…] by use of the Biacore T100 analysis software. The binding constant KD was calculated from the definition KD=koff/kon
# PARP = molecular target: T2, PARP (Homo sapiens, UniProt P09874); assay: PARP ELISA colorimetric assay of inhibition of PARP catalytic activity (IC50); assay type: biochemical; settings: pIC50=-log(IC50), IC50 in molar concentration; ELISA-based PARP kit, 10 minutes of catalysis
# T2 construct: purchased Trevigen 4684-096-01 (enzyme); kit 4684-096-K HT
# T2 sequence (P09874 whole entry): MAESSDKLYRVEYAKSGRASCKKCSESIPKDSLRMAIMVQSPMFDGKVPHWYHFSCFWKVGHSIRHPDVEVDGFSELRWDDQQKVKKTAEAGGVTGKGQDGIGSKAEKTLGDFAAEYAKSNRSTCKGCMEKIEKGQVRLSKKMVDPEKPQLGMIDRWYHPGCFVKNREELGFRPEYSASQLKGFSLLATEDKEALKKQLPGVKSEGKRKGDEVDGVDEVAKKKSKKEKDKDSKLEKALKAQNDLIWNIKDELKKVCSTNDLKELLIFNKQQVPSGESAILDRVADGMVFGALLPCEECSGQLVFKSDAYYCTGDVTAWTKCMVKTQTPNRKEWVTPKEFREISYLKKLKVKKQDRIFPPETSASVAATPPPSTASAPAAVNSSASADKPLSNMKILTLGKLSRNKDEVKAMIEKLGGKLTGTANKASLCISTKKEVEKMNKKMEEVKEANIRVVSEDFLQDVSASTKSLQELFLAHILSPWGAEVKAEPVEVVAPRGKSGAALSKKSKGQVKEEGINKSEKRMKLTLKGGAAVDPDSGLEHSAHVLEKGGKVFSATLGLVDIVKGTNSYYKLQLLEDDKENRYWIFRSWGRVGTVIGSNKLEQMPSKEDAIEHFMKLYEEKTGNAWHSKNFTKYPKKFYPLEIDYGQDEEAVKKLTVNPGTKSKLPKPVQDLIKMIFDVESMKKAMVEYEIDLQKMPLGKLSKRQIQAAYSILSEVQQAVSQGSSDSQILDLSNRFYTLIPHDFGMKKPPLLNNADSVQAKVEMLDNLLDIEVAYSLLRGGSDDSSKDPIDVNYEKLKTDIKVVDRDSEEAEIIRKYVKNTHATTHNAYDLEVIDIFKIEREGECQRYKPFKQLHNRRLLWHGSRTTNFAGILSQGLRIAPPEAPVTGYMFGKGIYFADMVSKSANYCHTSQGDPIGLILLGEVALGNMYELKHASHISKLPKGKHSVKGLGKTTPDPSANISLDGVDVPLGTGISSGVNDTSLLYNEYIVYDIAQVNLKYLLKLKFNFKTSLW
# How it was run: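 Human PARP was added as a 0.1 nM solution to histone-coated wells with compound for a 10-min ambient preincubation. The reaction was started with 100 μM NAD+ solution plus activated DNA and run 10 min. PAR formation was detected by anti-PAR ELISA, colorimetric. IC50 came from a 12-point, 3-fold gradient fitted by nonlinear least squares to a Hill equation.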
compound,measurement,setting,value
"O=C1Nc2cc(CN3CCN(c4ccc(Cl)cc4)CC3)cnc2N2CCC[C@@H]12 [Compound 1, (S)-3-((4-(4-chlorophenyl)piperazin-1-yl)methyl)-6a,7,8,9-tetrahydropyrido[3,2-e]pyrrolo[1,2-a]pyrazin-6(5H)-one]",melting point,,265 to 268 °C
same,PF50,Jurkat cell line,>500
"O=C1Nc2cc(CN3CCC(c4ccc(Cl)cc4)CC3)cnc2N2CCC[C@@H]12 [Compound 3, (S)-3-((4-(4-chlorophenyl)piperidin-1-yl)methyl)-6a,7,8,9-tetrahydropyrido[3,2-e]pyrrolo[1,2-a]pyrazin-6(5H)-one]",PF50,Jurkat cell line,>10
same,Kd,[1],31.6 to 794 nM
"CCNC(=O)c1ccc(N2CCN(Cc3cnc4c(c3)NC(=O)[C@@H]3CCCN43)CC2)cc1 [Compound 10, (S)—N-ethyl-4-(4-((6-oxo-5,6,6a,7,8,9-hexahydropyrido[3,2-e]pyrrolo[1,2-a]pyrazin-3-yl)methyl)piperazin-1-yl)benzamide]",PF50,Jurkat cell line,>5000
same,IC50,PARP,≤ 12.6 nM
same,Kd,[1],< 31.6 nM
"N#Cc1ccc(N2CCN(Cc3cnc4c(c3)NC(=O)[C@@H]3CCCN43)CC2)c(F)c1 [Compound 14, (S)-3-fluoro-4-(4-((6-oxo-5,6,6a,7,8,9-hexahydropyrido[3,2-e]pyrrolo[1,2-a]pyrazin-3-yl)methyl)piperazin-1-yl)benzonitrile]",melting point,,226 °C
same,PF50,Jurkat cell line,>500
"C[C@H]1C(=O)Nc2cc(CN3CC=C(c4ccc(Cl)cc4)CC3)cnc2N1C [Compound 52, (S)-7-((4-(4-chlorophenyl)-5,6-dihydropyridin-1(2H)-yl)methyl)-3,4-dimethyl-3,4-dihydropyrido[3,2-b]pyrazin-2(1H)-one]",PF50,Jurkat cell line,≧0
same,Kd,[1],< 31.6 nM
"C[C@H]1C(=O)Nc2cc(CN3CCC(c4ccc(Cl)cc4)CC3)cnc2N1C [Compound 53, (S)-7-((4-(4-chlorophenyl)piperidin-1-yl)methyl)-3,4-dimethyl-3,4-dihydropyrido[3,2-b]pyrazin-2(1H)-one]",PF50,Jurkat cell line,≧0
same,IC50,PARP,≥ 50.1 nM
same,Kd,[1],31.6 to 794 nM
"C[C@H]1C(=O)Nc2cc(CN3CC=C(c4ccc(F)cc4)CC3)cnc2N1C [Compound 56, (S)-7-((4-(4-fluorophenyl)-5,6-dihydropyridin-1(2H)-yl)methyl)-3,4-dimethyl-3,4-dihydropyrido[3,2-b]pyrazin-2(1H)-one]",PF50,Jurkat cell line,≧0
same,Kd,[1],< 31.6 nM
"C[C@H]1C(=O)Nc2cc(CN3CC=C(c4ccccc4)CC3)cnc2N1C [Compound 57, (S)-3,4-dimethyl-7-((4-phenyl-5,6-dihydropyridin-1(2H)-yl)methyl)-3,4-dihydropyrido[3,2-b]pyrazin-2(1H)-one]",PF50,Jurkat cell line,≧0
same,Kd,[1],< 31.6 nM
"C[C@H]1C(=O)Nc2cc(CN3CCN(c4ccc(Cl)cc4)CC3)cnc2N1C [Compound 59, (S)-7-((4-(4-chlorophenyl)piperazin-1-yl)methyl)-3,4-dimethyl-3,4-dihydropyrido[3,2-b]pyrazin-2(1H)-one]",PF50,Jurkat cell line,≧0
same,Kd,[1],< 31.6 nM
"CC(C)N1c2ncc(CN3CCN(c4ccc(Cl)cc4)CC3)cc2NC(=O)[C@@H]1C [Compound 61, (S)-7-((4-(4-chlorophenyl)piperazin-1-yl)methyl)-4-isopropyl-3-methyl-3,4-dihydropyrido[3,2-b]pyrazin-2(1H)-one]",Kd,[1],≥ 1000 nM
"CCN1c2ncc(CN3CC=C(c4ccc(Cl)cc4)CC3)cc2NC(=O)[C@@H]1C [Compound 63, (S)-7-((4-(4-chlorophenyl)-5,6-dihydropyridin-1(2H)-yl)methyl)-4-ethyl-3-methyl-3,4-dihydropyrido[3,2-b]pyrazin-2(1H)-one]",PF50,Jurkat cell line,≧0
same,Kd,[1],31.6 to 794 nM
"O=C1Nc2cc(CN3CC=C(c4ccc(Cl)cc4)CC3)cnc2N2CCCCC12 (centres unmarked) [Compound 65, 3-((4-(4-chlorophenyl)-5,6-dihydropyridin-1(2H)-yl)methyl)-7,8,9,10-tetrahydro-5H-dipyrido[1,2-a:3′,2′-e]pyrazin-6(6aH)-one]",PF50,Jurkat cell line,>10
same,IC50,PARP,≤ 12.6 nM
same,Kd,[1],≥ 1000 nM
"O=C1Nc2cc(CN3CCN(c4ccc(Cl)cc4)CC3)cnc2N2CCCCC12 (centres unmarked) [Compound 66, 3-((4-(4-chlorophenyl)piperazin-1-yl)methyl)-7,8,9,10-tetrahydro-5H-dipyrido[1,2-a:3′,2′-e]pyrazin-6(6aH)-one]",PF50,Jurkat cell line,>10
same,IC50,PARP,15.8 to 39.8 nM
same,Kd,[1],≥ 1000 nM
"O=C1Nc2cc(CN3CCC(c4ccc(Cl)cc4)CC3)cnc2N2CCCCC12 (centres unmarked) [Compound 67, 3-((4-(4-chlorophenyl)piperidin-1-yl)methyl)-7,8,9,10-tetrahydro-5H-dipyrido[1,2-a:3′,2′-e]pyrazin-6(6aH)-one]",PF50,Jurkat cell line,≧0
same,IC50,PARP,15.8 to 39.8 nM
same,Kd,[1],< 31.6 nM
"CN1CC(=O)Nc2cc(CN3CC=C(c4ccc(Cl)cc4)CC3)cnc21 [Compound 80, 7-((4-(4-chlorophenyl)-5,6-dihydropyridin-1(2H)-yl)methyl)-4-methyl-3,4-dihydropyrido[2,3-b]pyrazin-2(1H)-one]",PF50,Jurkat cell line,≧0
same,IC50,PARP,≥ 50.1 nM
same,Kd,[1],< 31.6 nM
"CN1CC(=O)Nc2cc(CN3CCN(c4ccc(Cl)cc4)CC3)cnc21 [Compound 81, 7-((4-(4-chlorophenyl)piperazin-1-yl)methyl)-4-methyl-3,4-dihydropyrido[2,3-b]pyrazin-2(1H)-one]",PF50,Jurkat cell line,≧0
same,IC50,PARP,≥ 50.1 nM
same,Kd,[1],31.6 to 794 nM
"CN1CC(=O)Nc2cc(CN3CCC(c4ccc(Cl)cc4)CC3)cnc21 [Compound 82, 7-((4-(4-chlorophenyl)piperidin-1-yl)methyl)-4-methyl-3,4-dihydropyrido[2,3-b]pyrazin-2(1H)-one]",PF50,Jurkat cell line,≧0
same,IC50,PARP,≥ 50.1 nM
same,Kd,[1],31.6 to 794 nM
"O=C1CN(Cc2ccccc2)c2ncc(CN3CC=C(c4ccc(Cl)cc4)CC3)cc2N1 [Compound 83, 4-benzyl-7-((4-(4-chlorophenyl)-5,6-dihydropyridin-1(2H)-yl)methyl)-3,4-dihydropyrido[2,3-b]pyrazin-2(1H)-one]",PF50,Jurkat cell line,≧0
same,IC50,PARP,15.8 to 39.8 nM
same,Kd,[1],≥ 1000 nM
"O=C1CN(Cc2ccccc2)c2ncc(CN3CCN(c4ccc(Cl)cc4)CC3)cc2N1 [Compound 84, 4-benzyl-7-((4-(4-chlorophenyl)piperazin-1-yl)methyl)-3,4-dihydropyrido[2,3-b]pyrazin-2(1H)-one]",PF50,Jurkat cell line,≧0
same,IC50,PARP,≤ 12.6 nM
same,Kd,[1],31.6 to 794 nM
"O=C1CN(Cc2ccccc2)c2ncc(CN3CCC(c4ccc(Cl)cc4)CC3)cc2N1 [Compound 85, 4-benzyl-7-((4-(4-chlorophenyl)piperidin-1-yl)methyl)-3,4-dihydropyrido[2,3-b]pyrazin-2(1H)-one]",PF50,Jurkat cell line,≧0
same,IC50,PARP,15.8 to 39.8 nM
same,Kd,[1],31.6 to 794 nM
"O=C1Nc2cc(CN3CC=C(c4ccc(Cl)cc4)CC3)cnc2N2CCSCC12 (centres unmarked) [Compound 86, 3-((4-(4-chlorophenyl)-5,6-dihydropyridin-1(2H)-yl)methyl)-6a,7,9,10-tetrahydropyrido[3,2-e][1,4]thiazino[4,3-a]pyrazin-6(5H)-one]",PF50,Jurkat cell line,>500
same,IC50,PARP,15.8 to 39.8 nM
same,Kd,[1],< 31.6 nM
"O=C1Nc2cc(CN3CCC(c4ccc(Cl)cc4)CC3)cnc2N2CCSCC12 (centres unmarked) [Compound 88, 3-((4-(4-chlorophenyl)piperidin-1-yl)methyl)-6a,7,9,10-tetrahydropyrido[3,2-e][1,4]thiazino[4,3-a]pyrazin-6(5H)-one]",PF50,Jurkat cell line,≧0
same,IC50,PARP,≤ 12.6 nM
same,Kd,[1],< 31.6 nM
